RP-LC retention time data for 80 compounds are collected here from the METLIN SMRT retention time set (Domingo-Almenara et al. 2019).

Each structure is given as a SMILES string.

A short description of this data set: gradient 5% acetonitrile 3 min, to 50% in 2 min, to 85% in 15 min, held 3 min, 100 µL/min. The note with it: column: Zorbax Extend-C18 2.1 x 50 mm; eluents: water / acetonitrile, 0.1% formic acid. Summed up: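 Pure standards were analyzed in mixtures of ~100 molecules using HPLC coupled to a quadrupole time-of-flight mass spectrometer, in both positive and negative ionization mode. Separation used a Zorbax Extend-C18 column (2.1 × 50 mm, 1.8 μm) at 100 μL/min, with water and acetonitrile each containing 0.1% formic acid. Dead and dwell volumes were 40 μL and 900 μL, and data were collected over 3 months. Retention time was read from computationally picked adduct peaks, each inspected manually.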
Take `CNC(=O)c1ccc(Cn2cnc3cccnc32)cc1`: the RP-LC retention time stood at 572 s. The same measure for `CCN1C(=O)C2CCC(=O)N2c2ccc(C(=O)NCc3ccco3)cc21` (stereo not given): 674 s. The same measure for `Cc1ccc(Nc2c(-c3ccc(N4CCOCC4)cc3)nc3cc(C)ccn23)cc1`: 769 s. The same measure for `O=C(Cc1ccsc1)NCCC1CCN(C(=O)Nc2cc(F)cc(F)c2)CC1`: 853 s; for `CCn1cc(C)c(C(=O)O)c1CC(=O)NCCCN1CCN(C)CC1`: 562 s; for `COC(=O)c1ccc(NC(=O)N2CC(C)Oc3ccc(C)cc32)cc1` (stereo not given): 1220 s. As to `CC(=O)N1CCCSc2ccc(S(=O)(=O)N3CCN(c4cc(C)ccc4C)CC3)cc21`, the RP-LC retention time amounted to 1130 s. The same measure for `O=C(NCc1c(F)cccc1F)c1csc(Nc2ncccn2)n1`: 695 s; for `CCn1c(SCC(=O)Nc2nc(-c3ccccc3)cs2)nnc1-c1nonc1NC(C)=O`: 897 s.

As for `COc1ccc(CCNC(=O)C2CCc3nc(N4CCCCC4)ncc3C2)cc1OC` (stereo not given), the RP-LC retention time was 702 s. Then `CCOc1ccc(N2C(=O)C3N=NN(Cc4nc(-c5ccc(C)c(C)c5)no4)C3C2=O)cc1` (stereo not given), with 1110 s; and `CCC(C)NC(=O)N1C[C@@H]2CN(S(=O)(=O)c3ccc(F)cc3)C[C@H](C1)O2` (stereo not given in full), with 731 s; and `CN1CCN(CCNC(=O)c2cnn3c4c(cnc23)CCCCCC4)CC1`, with 599 s. The compound `Cc1cccc(-c2nnc(SCc3cc(=O)n4ccsc4n3)o2)c1` displayed an RP-LC retention time of 821 s.

For `COc1cccc2c1OC1(C)CC2C(S(=O)(=O)c2ccc(C)c(C)c2)C(=O)N1` (stereo not given), the RP-LC retention time was determined as 888 s. The same measure for `COc1ccc(-c2noc(N3CCC(C(=O)NC4CC4)CC3)n2)cc1OC`: 690 s; for `Cc1csc(-c2cc(S(=O)(=O)Nc3cc(Cl)ccc3F)cn2CC(=O)N2CCCC2)n1`: 924 s.

Consider `COc1cccc(CNC(=O)C2CCCN(c3nnc4ccc(Cl)cn34)C2)c1` (stereo not given), for which the RP-LC retention time was determined as 756 s. The same measure for `CCc1cc(-c2csc(S(=O)(=O)Nc3ccc(C)c(C)c3)c2)on1`: 1050 s.

`CC(C)c1ccc(S(=O)(=O)N2CCC(C)(C(=O)NCc3ccc(F)cc3)CC2)cc1` showed an RP-LC retention time of 1050 s. `CCc1ccccc1NS(=O)(=O)c1ccc2c(c1)CCCC(=O)N2` yielded an RP-LC retention time of 756 s. The same measure for `COCC(=O)N(C1CCOCC1)C1CCN(S(=O)(=O)c2ccc(F)c(F)c2)CC1`: 788 s. The same measure for `CCCn1cc(S(=O)(=O)Nc2ccc(OC)cc2)c2cccnc21`: 886 s; for `O=C(NCCn1nc(-c2cccs2)ccc1=O)c1cc(-c2cccs2)[nH]n1`: 573 s. `CCc1nc(-c2csc(S(=O)(=O)N3CCCC(C(=O)NC(C)C)C3)c2)no1` (stereo not given) registered an RP-LC retention time of 865 s. In turn, `Cc1ccc(Cl)cc1N1CCN(C(=O)c2c(C)oc3c2C2=NCCN2C=N3)CC1` had an RP-LC retention time of 705 s. Then `COC(=O)c1ncn2c1C(=O)N(c1ccccc1C)C(C)(C(=O)NCc1ccccc1)C2` (stereo not given), with 715 s; and `COCCC1CCN(C(=O)CN(C)C(=O)c2ccc(C#N)cc2)CC1`, with 666 s; and `O=C(Nc1nnc(-c2cc3ccccc3o2)o1)c1ccc([N+](=O)[O-])o1`, with 792 s. Then `Cc1ccccc1C(=O)N1CCN(CC(F)(F)F)CC1`, with 752 s. The same measure for `COc1cccc2c(C)nc(NC3=NCN(CC4CCCO4)CN3)nc12` (stereo not given): 627 s.

In turn, `CCN1C(=O)COc2ccc(-c3noc(-c4cccc(F)c4)n3)cc21` had an RP-LC retention time of 1170 s. Then `CCOC(=O)c1nc(Nc2ccc(C)c(C)c2)c2ccccc2n1`, with 934 s; and `Cc1ccc(S(=O)(=O)N2C(=O)CCC2C(=O)NC2CCCC2)cc1C` (stereo not given), with 855 s. The same measure for `CCC(Oc1ccc(=O)n(-c2ccc(F)cc2)n1)C(=O)NCCCOC` (stereo not given): 677 s; for `O=C(Cn1nc2c3ccc(F)cc3ncn2c1=O)Nc1ccccc1Cl`: 725 s. `Cc1ccccc1S(=O)(=O)N1CCC(Cc2nc3cccnc3n2CC(C)C)C1` (stereo not given) displayed an RP-LC retention time of 785 s. Then `CCn1c(=O)c(N2CCN(C(=O)NCc3ccccc3)CC2)nc2ccccc21`, with 820 s; and `NC(=O)C1CCN(C2CC(=O)N(c3ccc(Cl)c(Cl)c3)C2=O)CC1` (stereo not given), with 611 s; and `COc1cc(-c2cc(CN(CC3CCCO3)C(=O)C3CCCCC3)no2)cc(OC)c1OC` (stereo not given), with 968 s. The same measure for `O=c1c(NC2CCCCC2)nc2ccncc2n1Cc1ccccc1`: 745 s; for `O=c1cc(-c2ccccc2)nc2n1CCN2Cc1ccccn1`: 658 s. Then `COC(=O)c1cc(S(=O)(=O)N2CCCC2C(=O)Nc2nc3ccc(OC)cc3s2)cn1C` (stereo not given), with 893 s; and `Cc1cc(=O)n(CC(=O)Nc2ccccc2)c(N2CCCC2)n1`, with 622 s; and `CSc1ccc(CNC(=O)CCC(=O)N2Cc3cccn3-c3ccccc32)cc1`, with 961 s. Compound `O=c1c2nnc3c(-c4ccccc4)cnn3c2ccn1CCc1c[nH]c2ccccc12` returned an RP-LC retention time of 917 s. Compound `COc1ccc(Nc2cc(C(=O)N3CCCC3)nc3ccc(C)cc23)cc1` returned an RP-LC retention time of 659 s. Then `COc1cc(NC(=O)Cn2nc([N+](=O)[O-])cc2C)c(OC)cc1Cl`, with 829 s. The same measure for `CN(C)c1ccc(C(=O)N2CCCC2c2nc(-c3ccccc3)no2)cc1` (stereo not given): 986 s; for `COc1ccc(Nc2c(-c3ccc(OC)c(OC)c3)nc3cnccn23)cc1OC`: 672 s. The same measure for `CCN(CC)C(=O)Cn1nc2cc(C)nc(-c3ccc(C(F)(F)F)cc3)n2c1=O`: 841 s.

The compound `CCCCOc1ccc(CNC(=O)C2CCCN(C(=O)c3[nH]c(C)c(C(=O)OC)c3C)C2)cc1` (stereo not given) came in with an RP-LC retention time of 930 s. As to `CCN(Cc1cnn(CC)c1)C(=O)C1CN(C(=O)c2ccccc2)CC12CCCCC2` (stereo not given), the RP-LC retention time is 812 s. The same measure for `Cc1cc(C)c(S(=O)(=O)Nc2cc(-c3cn4ccccc4n3)ccc2C)cc1C`: 737 s. Then `O=c1cc(-c2ccccc2)c2c(O)cc(O)cc2o1`, with 721 s; and `CC(C)c1ccc(-c2csc(NC(=O)c3cccc(Cl)c3)n2)cc1`, with 1300 s. Then `O=C(NCc1ccc(Cl)cc1)c1cn2c(n1)COCC2`, with 678 s.

In turn, `Nc1cc(C2CCN(S(=O)(=O)c3ccccc3)CC2)no1` gave an RP-LC retention time of 732 s.

With `O=C(NCC#CCN1CCc2ccccc2C1)c1ccc2cc[nH]c2c1`, the RP-LC retention time was determined as 579 s. Compound `CCCOc1nc2ccccc2nc1N1CCCC(C(=O)Nc2ccc(Cl)cc2)C1` (stereo not given) displayed an RP-LC retention time of 1210 s.

As for `COc1ccc(-n2ncc3c(=O)n(Cc4nc(-c5ccc(C)cc5)no4)cnc32)cc1`, the RP-LC retention time turned out to be 1030 s. The same measure for `Cc1cccc(-c2noc(-c3nn(-c4cccc(F)c4)ccc3=O)n2)c1`: 928 s; for `O=S(=O)(c1ccc(-c2nnc(C3CC3)o2)o1)N1CCN(c2ccccc2)CC1`: 971 s; for `O=C(NCC1CC1)c1ccc(NC(=O)C2CCC2)cc1N1CCOCC1`: 709 s.

Compound `CCC(C)NC(=O)C1(c2ccc(NS(=O)(=O)CC)cc2)CCCCC1` (stereo not given) had an RP-LC retention time of 887 s.

`O=c1c2oc3ccccc3c2ncn1Cc1nc(-c2ccc(F)cc2)no1`: the RP-LC retention time was 945 s. The same measure for `CCSc1nc2nc3c(cn2n1)C(=O)CCC3`: 723 s; for `COc1ccccc1-c1nnc(N)s1`: 598 s. The same measure for `Cc1cc(NC(=O)c2cc3c(=O)n(CC(C)C)ccc3n2C)ccc1Br`: 1030 s.

The compound `COc1ccccc1NC(=O)N1c2ccccc2NC2=C(C(=O)CCC2)C1c1ccco1` (stereo not given) gave an RP-LC retention time of 830 s. The same measure for `COC(=O)c1c(C)[nH]c(C(=O)N2CCC(CC(=O)N3CCN(c4ccccc4)CC3)CC2)c1C`: 775 s; for `CCN1C(=O)C(C)(C(=O)NCc2ccccc2Cl)Oc2cccnc21` (stereo not given): 890 s; for `CCc1nnc2cc(N3CCN(C(=O)Nc4cccc(C)c4)CC3)cnn12`: 593 s. Then `CC(C)C(=O)Nc1ccc(-n2cnc(C(=O)NCc3ccc(Cl)cc3)c2)nc1`, with 796 s.

The compound `CCC1CN(C(=O)N2CCC(C(=O)NCCCN3CCN(C)CC3)CC2)c2cc(C)ccc2O1` (stereo not given) had an RP-LC retention time of 617 s. The same measure for `COc1ccc(S(=O)(=O)N2CCC(c3nc(C(=O)N4CCCC4)c(C)o3)CC2)cc1`: 871 s.

For the compound `CCc1nc2cc3c(cc2n1CC(=O)N1CCCCC1)OCCO3`, the RP-LC retention time was 600 s. The same measure for `CCc1ccccc1NC(=O)C1CCN(S(=O)(=O)c2cc(C(=O)N3CCCC3)cs2)CC1`: 799 s. Then `Cc1ccc2oc(C(=O)N3CCC(CCN4CCCC4)CC3)cc(=O)c2c1`, with 603 s; and `COc1ccc(S(=O)(=O)N2CCCC(C(=O)NCCC3=CCCCC3)C2)cc1C` (stereo not given), with 1070 s.
